Publication PMC12278645, “Design, synthesis, and antitumor activity of novel thioheterocyclic nucleoside derivatives by suppressing the c-MYC pathway” (Acta Pharmaceutica Sinica. B, 2025)

Key:
[1] = tested on: HeLa cells; experiment: CCK-8 anti-proliferation assay, HeLa; type: cell-based, human
Experimental: (§1) Tumor cell anti-proliferation activities were determined by cell counting kit-8 (CCK-8) assay.
(§2) MCF-7, A375, and HeLa cells were cultured in DMEM, HCT116 cells were cultured in McCoy's 5A medium, and DU145 and CT26 were cultured in RPMI 1640 with 10% FBS, 1% penicillin-streptomycin solution (10,000 U/mL penicillin and 10,000 μg/mL streptomycin) at 37 °C under 5% CO2. The cells were seeded in 96-well plates (4 × 10^3 cells/well) overnight and then treated with various concentrations (1–50 μmol/L) of the compound. After 48 h, the cell viability was measured by CCK-8 assay. The absorbance of each well was measured using a microplate reader (Multiskan FC, Thermo Fisher Scientific, Massachusetts, USA) at 450 nm wavelength. Assays were performed in triplicate. Compound concentrations that inhibited cell growth by 50% (IC50) were calculated from the dose–response curves of each cell line. Data are mean ± SD values from three independent experiments.

[2] = tested on: HCT116 cells; experiment: CCK-8 anti-proliferation assay, HCT116; type: cell-based, human
Experimental: as §1, §2

[3] = Homo sapiens, HeLa, 48 h, CCK-8, 48 h, mean ± SD, three independent experiments
[4] = Homo sapiens, HCT-116, 48 h, CCK-8, 48 h, mean ± SD, three independent experiments
[5] = CCK-8, 48 h, mean ± SD, three independent experiments

CCOC(=O)[C@]1(n2cnc3c(Sc4cccc(F)c4)ncnc32)CSC[C@@H]1O (relative stereo) [28b]
IC50 [1, 3]: 25.8 ± 1.35 µM
IC50 [2, 4]: 15.7 ± 2 µM

CCOC(=O)[C@]1(n2cnc3c(SCCCF)ncnc32)CSC[C@H]1O (relative stereo) [30a]
IC50 [1, 3]: 10.8 ± 1.07 µM
IC50 [2, 4]: 19.1 ± 1.37 µM

CCOC(=O)C1(n2cnc3c(N4CCOCC4)nc(Cl)nc32)CSCC1O (single isomer, unassigned) [42b]
IC50 ([1]; Table S3, CCK-8, mean ± SD): 3.21 ± 0.65 µM
IC50 ([2]; Table S3, CCK-8, mean ± SD): 4.48 ± 0.56 µM

CCOC(=O)C1(n2cnc3c(Cl)nc(Cl)nc32)CSCC1O (single isomer, unassigned) [40a]
IC50 ([1]; Table S3, CCK-8, mean ± SD): 8.21 ± 1.25 µM
IC50 ([2]; Table S3, CCK-8, mean ± SD): 5.37 ± 1.02 µM

CCOC(=O)C1(n2cnc3c(N4CCC(C(F)(F)F)CC4)ncnc32)CSCC1O (single isomer, unassigned) [13b]
IC50 [1, 5]: 38.7 ± 2.09 µM
IC50 [2, 5]: 2.37 ± 0.36 µM

CCOC(=O)C1(n2cnc3c(Cl)nc(N)nc32)CSCC1O (single isomer, unassigned) [38a]
IC50 ([1]; Table S3, CCK-8, mean ± SD): 25.6 ± 2.13 µM
IC50 ([2]; Table S3, CCK-8, mean ± SD): 30.5 ± 1.42 µM

CCOC(=O)[C@]1(n2cnc3c(Sc4cccc(F)c4)ncnc32)CSC[C@H]1O (relative stereo) [28a]
IC50 [1, 3]: 9.47 ± 1.02 µM
IC50 [2, 4]: 12.8 ± 1.08 µM

CCOC(=O)C1(n2cnc3c(N4CCC(F)CC4)ncnc32)CSCC1O (single isomer, unassigned) [12a]
IC50 [1, 5]: 44.5 ± 3.12 µM
IC50 [2, 5]: 1.64 ± 0.27 µM

CCCSc1nc(F)nc2c1ncn2[C@@]1(C(=O)OCC)CSC[C@@H]1O [36ba]
IC50 [1, 5]: 5.52 ± 1.12 µM
IC50 [2, 5]: 0.89 ± 0.14 µM

CCOC(=O)C1(n2cnc3c(N4CCSCC4)ncnc32)CSCC1O (single isomer, unassigned) [10b]
IC50 [1, 5]: 10.2 ± 1.93 µM
IC50 [2, 5]: 10.1 ± 1.01 µM

CCOC(=O)C1(n2cnc3cnc(Cl)nc32)CSCC1O (centres unmarked) [41a]
IC50 ([1]; Table S3, CCK-8, mean ± SD): > 50 µM
IC50 ([2]; Table S3, CCK-8, mean ± SD): > 50 µM

CCCSc1nc(Cl)nc2c1ncn2C1(C(=O)OCC)CSCC1O (single isomer, unassigned) [37a]
IC50 [1, 5]: 1.58 ± 0.36 µM
IC50 [2, 5]: 3.81 ± 0.13 µM

CCOC(=O)[C@]1(n2cnc3c(SCc4ccccc4)ncnc32)CSC[C@H]1O (relative stereo) [27a]
IC50 [1, 3]: 22.3 ± 2.09 µM
IC50 [2, 4]: 14.4 ± 1.64 µM

CCOC(=O)C1(n2cnc3c(N4CCC(C)CC4)ncnc32)CSCC1O (single isomer, unassigned) [11b]
IC50 [1, 5]: 23.4 ± 2.76 µM
IC50 [2, 5]: 0.91 ± 0.27 µM

CCOC(=O)C1(n2cnc3c(N4CCCCC4)nc(N)nc32)CSCC1O (single isomer, unassigned) [32b]
IC50 [1, 5]: 5.37 ± 1.09 µM
IC50 [2, 5]: 0.81 ± 0.12 µM

CCOC(=O)C1(n2cnc3c(N4CCCCCC4)ncnc32)CSCC1O (single isomer, unassigned) [19b]
IC50 [1, 5]: 46.1 ± 2.46 µM
IC50 [2, 5]: 3.05 ± 0.67 µM

CCOC(=O)[C@]1(n2cnc3c(SC(C)C)ncnc32)CSC[C@@H]1O (relative stereo) [23b]
IC50 [1, 3]: 3.43 ± 0.76 µM
IC50 [2, 4]: 4.01 ± 0.88 µM

CCCCCSc1ncnc2c1ncn2[C@@]1(C(=O)OCC)CSC[C@H]1O (relative stereo) [26a]
IC50 [1, 3]: 6.07 ± 0.78 µM
IC50 [2, 4]: 11.9 ± 1.32 µM

CCOC(=O)[C@]1(n2cnc3c(Sc4ccc(C(C)(C)C)cc4)ncnc32)CSC[C@H]1O (relative stereo) [29a]
IC50 [1, 3]: 21.2 ± 2.37 µM
IC50 [2, 4]: 7.6 ± 1.22 µM

CCOC(=O)[C@]1(n2cnc3c(SCCCF)ncnc32)CSC[C@@H]1O (relative stereo) [30b]
IC50 [1, 3]: 12.1 ± 1.12 µM
IC50 [2, 4]: 10.9 ± 1.01 µM

CCOC(=O)C1(n2cnc3c(N4CCCCC4)nc(Cl)nc32)CSCC1O (single isomer, unassigned) [34a]
IC50 [1, 5]: 4.86 ± 0.65 µM
IC50 [2, 5]: 7.2 ± 0.39 µM

CCCCSc1ncnc2c1ncn2[C@@]1(C(=O)OCC)CSC[C@H]1O (relative stereo) [25a]
IC50 [1, 3]: 9.89 ± 1.02 µM
IC50 [2, 4]: 9.07 ± 0.49 µM

CCOC(=O)[C@]1(n2cnc3c(SC)ncnc32)CSC[C@@H]1O (relative stereo) [21b]
IC50 [1, 3]: 8.83 ± 0.78 µM
IC50 [2, 4]: 32.7 ± 1.17 µM

CCOC(=O)C1(n2cnc3c(N4CCSCC4)ncnc32)CSCC1O (single isomer, unassigned) [10a]
IC50 [1, 5]: 45.8 ± 2.12 µM
IC50 [2, 5]: 18.8 ± 1.04 µM

CCOC(=O)C1(n2cnc3c(N4CCC(C)CC4)ncnc32)CSCC1O (single isomer, unassigned) [11a]
IC50 [1, 5]: 21.8 ± 2.42 µM
IC50 [2, 5]: 1.44 ± 0.13 µM

CCOC(=O)C1(n2cnc3c(N(C)C)ncnc32)CSCC1O (single isomer, unassigned) [4a]
IC50 [1, 5]: 9.81 ± 1.12 µM
IC50 [2, 5]: 17.4 ± 1.01 µM

CCCCSc1ncnc2c1ncn2[C@@]1(C(=O)OCC)CSC[C@@H]1O (relative stereo) [25b]
IC50 [1, 3]: 6.32 ± 0.82 µM
IC50 [2, 4]: 2.84 ± 0.27 µM

CCOC(=O)C1(n2cnc3c(N4CCCC4)ncnc32)CSCC1O (single isomer, unassigned) [20b]
IC50 [1, 5]: 12.2 ± 1.28 µM
IC50 [2, 5]: 22.8 ± 1.04 µM

CCOC(=O)C1(n2cnc3c(Cl)nc(Cl)nc32)CSCC1O (single isomer, unassigned) [40b]
IC50 ([1]; Table S3, CCK-8, mean ± SD): 4.45 ± 1.07 µM
IC50 ([2]; Table S3, CCK-8, mean ± SD): 2.13 ± 0.46 µM

CCCSc1nc(F)nc2c1ncn2[C@]1(C(=O)OCC)CSC[C@H]1O [36bb]
IC50 [1, 3]: 9.49 ± 1.18 µM
IC50 [2, 4]: 0.37 ± 0.08 µM

CCOC(=O)C1(n2cnc3c(N4CCC(C(F)(F)F)CC4)ncnc32)CSCC1O (single isomer, unassigned) [13a]
IC50 [1, 5]: 42 ± 2.12 µM
IC50 [2, 5]: 5.89 ± 1.02 µM

CCOC(=O)C1(n2cnc3c(Cl)nc(F)nc32)CSCC1O (single isomer, unassigned) [39a]
IC50 ([1]; Table S3, CCK-8, mean ± SD): 11.2 ± 1.32 µM
IC50 ([2]; Table S3, CCK-8, mean ± SD): 3.42 ± 0.42 µM

CCOC(=O)[C@]1(n2cnc3c(SCc4ccccc4)ncnc32)CSC[C@@H]1O (relative stereo) [27b]
IC50 [1, 3]: 23.9 ± 2.38 µM
IC50 [2, 4]: 5.65 ± 1.4 µM

CCOC(=O)C1(n2cnc3c(N4CCC(Cc5ccccc5)CC4)ncnc32)CSCC1O (centres unmarked) [16a]
IC50 [1, 5]: 3.34 ± 0.36 µM
IC50 [2, 5]: 1.2 ± 0.09 µM

CCOC(=O)[C@]1(n2cnc3c(SC(C)C)ncnc32)CSC[C@H]1O (relative stereo) [23a]
IC50 [1, 3]: 8.45 ± 1.23 µM
IC50 [2, 4]: 4.85 ± 1.02 µM

CCOC(=O)C1(n2cnc3c(N4CCC(N5CCOCC5)CC4)ncnc32)CSCC1O (single isomer, unassigned) [15b]
IC50 [1, 5]: 7.71 ± 1.02 µM
IC50 [2, 5]: 32 ± 2.09 µM

CCOC(=O)C1(n2cnc3c(N4CCCCC4)nc(Cl)nc32)CSCC1O (single isomer, unassigned) [34b]
IC50 [1, 5]: 4.05 ± 0.37 µM
IC50 [2, 5]: 4.3 ± 0.51 µM

CCOC(=O)C1(n2cnc3c(OCC)ncnc32)CSCC1O (centres unmarked) [6a]
IC50 [1, 5]: > 50 µM
IC50 [2, 5]: > 50 µM

CCOC(=O)C1(n2cnc3c(N(C)C)ncnc32)CSCC1O (single isomer, unassigned) [4b]
IC50 [1, 5]: 12 ± 1.57 µM
IC50 [2, 5]: 49.5 ± 2.02 µM

CCOC(=O)C1(n2cnc3c(Cl)nc(F)nc32)CSCC1O (single isomer, unassigned) [39b]
IC50 ([1]; Table S3, CCK-8, mean ± SD): 9.33 ± 1.17 µM
IC50 ([2]; Table S3, CCK-8, mean ± SD): 2.01 ± 0.24 µM

CCOC(=O)C1(n2cnc3cncnc32)CSCC1O (centres unmarked) [1a]
IC50 [1, 5]: > 50 µM
IC50 [2, 5]: > 50 µM
anticancer activity ([2]; under 50 μmol/L, HeLa and HCT116): no anticancer activity

CCOC(=O)C1(n2cnc3c(Br)ncnc32)CSCC1O (single isomer, unassigned) [3b]
IC50 [1, 5]: > 50 µM
IC50 [2, 5]: > 50 µM

CCOC(=O)C1(n2cnc3c(N4CCC(Cc5ccccc5F)CC4)ncnc32)CSCC1O (single isomer, unassigned) [17a]
IC50 [1, 5]: 17 ± 1.03 µM
IC50 [2, 5]: 4.4 ± 1.02 µM

CCOC(=O)C1(n2cnc3c(Cl)nc(N)nc32)CSCC1O (single isomer, unassigned) [38b]
IC50 ([1]; Table S3, CCK-8, mean ± SD): 22.5 ± 2.17 µM
IC50 ([2]; Table S3, CCK-8, mean ± SD): 10.6 ± 1.02 µM

CCCSc1nc(Cl)nc2c1ncn2C1(C(=O)OCC)CSCC1O (single isomer, unassigned) [37b]
IC50 [1, 5]: 5.98 ± 1.25 µM
IC50 [2, 5]: 2.7 ± 0.04 µM

CCCSc1nc(N)nc2c1ncn2C1(C(=O)OCC)CSCC1O (single isomer, unassigned) [35b]
IC50 [1, 5]: 8.49 ± 1.02 µM
IC50 [2, 5]: 0.65 ± 0.21 µM

CCOC(=O)[C@]1(n2cnc3c(SCCCCl)ncnc32)CSC[C@H]1O (relative stereo) [31a]
IC50 [1, 3]: > 50 µM
IC50 [2, 4]: > 50 µM

CCCCCSc1ncnc2c1ncn2[C@@]1(C(=O)OCC)CSC[C@@H]1O (relative stereo) [26b]
IC50 [1, 3]: > 50 µM
IC50 [2, 4]: 11.8 ± 1.27 µM

CCOC(=O)C1(n2cnc3c(N4CCC(Cl)CC4)ncnc32)CSCC1O (single isomer, unassigned) [14b]
IC50 [1, 5]: 14.3 ± 1.58 µM
IC50 [2, 5]: 18 ± 2.37 µM

CCOC(=O)C1(n2cnc3c(Cl)ncnc32)CSCC1O (single isomer, unassigned) [2a]
IC50 [1, 5]: > 50 µM
IC50 [2, 5]: 48.9 ± 2.12 µM
